Drawing on the NIST ThermoML archive (doi:10.1021/je034189g), this text covers Normal boiling temperature for four compounds.

± gives the expanded uncertainty stated by the source.

The conditions of the data set: Liquid; Ebulliometric method (Recirculating still).
For `COc1ccccc1` [anisole], the Normal boiling temperature was determined as 153.62 ± 0.15 °C.
`c1ccccc1` [benzene]: the Normal boiling temperature was determined as 80.01 ± 0.15 °C.
In the case of `C1CCCCC1` [cyclohexane], the Normal boiling temperature stood at 80.63 ± 0.15 °C.
`CCCCCO` [pentan-1-ol]: the Normal boiling temperature is 137.63 ± 0.15 °C.
